Experimental findings from ChEMBL document CHEMBL1201862, “PubChem BioAssay data set” (2004) are described below.

Calls of active or inactive are those of the source. A value given as a limit tells only on which side of the number the result lay.

A word on the IC50: it is the point on the concentration scale where inhibition reaches its midpoint. In general, EC50 refers to the concentration giving half of the maximal effect.

In assay [1] the target is DNA damage-inducible transcript 3 protein (Mus musculus, UniProt P35639). Type of assay: functional, Cricetulus griseus.
Assay [2] can be described thus: ADAM10 protease inhibitors, dose response, selectivity assay for ADAM17 exosite inhibitor project, biochemical, FRET peptide substrate, recombinant human ADAM10 (AID 743259).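 Note: ADAM10 enzyme cleaving a FRET peptide substrate.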
Assay [3] concerns the target Disintegrin and metalloproteinase domain-containing protein 17 (Homo sapiens, UniProt P78536). Kind of assay: exosite inhibitors of ADAM17, dose response, biochemical (AID 743260).
The target of the next assay is Mucolipin-3 (Homo sapiens, UniProt Q8TDD5). Nature of the assay: Fluorescence counterscreen assay for […] agonists: dose response cell-based high-throughput screening assay to identify agonists of the transient receptor potential channel ML3 (TRPML3). [Related pubchem assays: 1424, 1448 ]. It is filed as functional.
The next assay addresses Ion channel NompC (Danio rerio, UniProt Q7T1G6). Nature of the assay: Dose response cell-based high-throughput screening assay for agonists of the transient receptor potential channel N1 (TRPN1). [Related pubchem assays (depositor defined):AID1424, AID1448]. Type of assay: functional.
For a further assay, the target named is T1, Coagulation factor XII (Homo sapiens, UniProt P00748).
T1 sequence (P00748 whole entry): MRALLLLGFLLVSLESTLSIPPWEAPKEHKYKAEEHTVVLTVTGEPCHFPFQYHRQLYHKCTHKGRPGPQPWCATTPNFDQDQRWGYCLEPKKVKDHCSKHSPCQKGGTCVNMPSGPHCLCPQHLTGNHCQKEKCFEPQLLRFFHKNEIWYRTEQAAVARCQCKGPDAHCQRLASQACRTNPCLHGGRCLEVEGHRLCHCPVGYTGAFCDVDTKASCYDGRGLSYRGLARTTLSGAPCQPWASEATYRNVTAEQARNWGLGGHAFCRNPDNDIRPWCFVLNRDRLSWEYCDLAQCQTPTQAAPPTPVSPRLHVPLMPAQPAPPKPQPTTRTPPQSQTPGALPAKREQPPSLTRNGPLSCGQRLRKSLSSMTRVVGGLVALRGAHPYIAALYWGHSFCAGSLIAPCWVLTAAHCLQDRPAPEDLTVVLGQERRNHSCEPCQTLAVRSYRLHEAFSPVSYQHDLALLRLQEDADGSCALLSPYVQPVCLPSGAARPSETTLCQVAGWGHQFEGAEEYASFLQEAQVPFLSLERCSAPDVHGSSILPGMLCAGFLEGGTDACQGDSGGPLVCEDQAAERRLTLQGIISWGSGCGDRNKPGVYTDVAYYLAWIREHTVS
Nature of the assay: Factor XIIa Dose Response Confirmation from Single Well HTS. [Related pubchem assays (depositor defined):AID701]. It is filed as functional.

Disintegrin and metalloproteinase domain-containing protein 17, sequence (P78536 whole entry, the tested form may be a part): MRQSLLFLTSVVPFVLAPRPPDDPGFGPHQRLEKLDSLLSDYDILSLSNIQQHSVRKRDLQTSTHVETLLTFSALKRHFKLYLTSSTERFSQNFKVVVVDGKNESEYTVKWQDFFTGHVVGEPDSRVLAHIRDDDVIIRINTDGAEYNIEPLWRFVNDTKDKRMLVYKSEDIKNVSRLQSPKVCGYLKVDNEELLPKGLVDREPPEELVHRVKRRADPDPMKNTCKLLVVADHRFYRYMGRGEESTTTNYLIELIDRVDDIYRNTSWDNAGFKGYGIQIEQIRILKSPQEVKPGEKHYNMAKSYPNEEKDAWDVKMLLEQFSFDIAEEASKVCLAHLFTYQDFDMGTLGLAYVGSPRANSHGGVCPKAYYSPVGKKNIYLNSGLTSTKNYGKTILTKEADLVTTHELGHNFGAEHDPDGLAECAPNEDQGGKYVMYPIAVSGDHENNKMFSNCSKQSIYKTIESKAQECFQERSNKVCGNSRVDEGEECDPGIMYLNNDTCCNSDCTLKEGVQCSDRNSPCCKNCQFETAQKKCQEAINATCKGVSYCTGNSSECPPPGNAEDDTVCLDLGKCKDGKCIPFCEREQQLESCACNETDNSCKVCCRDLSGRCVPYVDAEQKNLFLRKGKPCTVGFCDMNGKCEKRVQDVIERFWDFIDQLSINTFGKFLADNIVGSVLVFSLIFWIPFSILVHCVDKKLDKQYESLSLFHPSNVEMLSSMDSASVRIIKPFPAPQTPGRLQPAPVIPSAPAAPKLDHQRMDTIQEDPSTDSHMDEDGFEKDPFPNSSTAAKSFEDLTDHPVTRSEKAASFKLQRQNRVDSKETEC
Mucolipin-3, sequence (Q8TDD5 whole entry): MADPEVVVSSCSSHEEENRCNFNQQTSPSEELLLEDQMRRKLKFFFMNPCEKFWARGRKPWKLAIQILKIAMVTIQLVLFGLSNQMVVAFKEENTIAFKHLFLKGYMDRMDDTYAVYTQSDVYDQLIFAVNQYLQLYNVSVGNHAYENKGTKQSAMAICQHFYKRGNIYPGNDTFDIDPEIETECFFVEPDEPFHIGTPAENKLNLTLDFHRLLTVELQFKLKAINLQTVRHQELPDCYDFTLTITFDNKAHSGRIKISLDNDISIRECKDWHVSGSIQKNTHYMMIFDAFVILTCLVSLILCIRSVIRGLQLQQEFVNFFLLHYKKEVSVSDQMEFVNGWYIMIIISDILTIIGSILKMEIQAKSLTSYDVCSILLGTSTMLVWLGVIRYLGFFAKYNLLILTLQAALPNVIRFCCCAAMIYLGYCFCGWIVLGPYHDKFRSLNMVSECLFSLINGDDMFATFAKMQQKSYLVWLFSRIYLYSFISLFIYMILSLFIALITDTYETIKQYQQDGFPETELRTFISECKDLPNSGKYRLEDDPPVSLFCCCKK
Ion channel NompC, sequence (Q7T1G6 whole entry): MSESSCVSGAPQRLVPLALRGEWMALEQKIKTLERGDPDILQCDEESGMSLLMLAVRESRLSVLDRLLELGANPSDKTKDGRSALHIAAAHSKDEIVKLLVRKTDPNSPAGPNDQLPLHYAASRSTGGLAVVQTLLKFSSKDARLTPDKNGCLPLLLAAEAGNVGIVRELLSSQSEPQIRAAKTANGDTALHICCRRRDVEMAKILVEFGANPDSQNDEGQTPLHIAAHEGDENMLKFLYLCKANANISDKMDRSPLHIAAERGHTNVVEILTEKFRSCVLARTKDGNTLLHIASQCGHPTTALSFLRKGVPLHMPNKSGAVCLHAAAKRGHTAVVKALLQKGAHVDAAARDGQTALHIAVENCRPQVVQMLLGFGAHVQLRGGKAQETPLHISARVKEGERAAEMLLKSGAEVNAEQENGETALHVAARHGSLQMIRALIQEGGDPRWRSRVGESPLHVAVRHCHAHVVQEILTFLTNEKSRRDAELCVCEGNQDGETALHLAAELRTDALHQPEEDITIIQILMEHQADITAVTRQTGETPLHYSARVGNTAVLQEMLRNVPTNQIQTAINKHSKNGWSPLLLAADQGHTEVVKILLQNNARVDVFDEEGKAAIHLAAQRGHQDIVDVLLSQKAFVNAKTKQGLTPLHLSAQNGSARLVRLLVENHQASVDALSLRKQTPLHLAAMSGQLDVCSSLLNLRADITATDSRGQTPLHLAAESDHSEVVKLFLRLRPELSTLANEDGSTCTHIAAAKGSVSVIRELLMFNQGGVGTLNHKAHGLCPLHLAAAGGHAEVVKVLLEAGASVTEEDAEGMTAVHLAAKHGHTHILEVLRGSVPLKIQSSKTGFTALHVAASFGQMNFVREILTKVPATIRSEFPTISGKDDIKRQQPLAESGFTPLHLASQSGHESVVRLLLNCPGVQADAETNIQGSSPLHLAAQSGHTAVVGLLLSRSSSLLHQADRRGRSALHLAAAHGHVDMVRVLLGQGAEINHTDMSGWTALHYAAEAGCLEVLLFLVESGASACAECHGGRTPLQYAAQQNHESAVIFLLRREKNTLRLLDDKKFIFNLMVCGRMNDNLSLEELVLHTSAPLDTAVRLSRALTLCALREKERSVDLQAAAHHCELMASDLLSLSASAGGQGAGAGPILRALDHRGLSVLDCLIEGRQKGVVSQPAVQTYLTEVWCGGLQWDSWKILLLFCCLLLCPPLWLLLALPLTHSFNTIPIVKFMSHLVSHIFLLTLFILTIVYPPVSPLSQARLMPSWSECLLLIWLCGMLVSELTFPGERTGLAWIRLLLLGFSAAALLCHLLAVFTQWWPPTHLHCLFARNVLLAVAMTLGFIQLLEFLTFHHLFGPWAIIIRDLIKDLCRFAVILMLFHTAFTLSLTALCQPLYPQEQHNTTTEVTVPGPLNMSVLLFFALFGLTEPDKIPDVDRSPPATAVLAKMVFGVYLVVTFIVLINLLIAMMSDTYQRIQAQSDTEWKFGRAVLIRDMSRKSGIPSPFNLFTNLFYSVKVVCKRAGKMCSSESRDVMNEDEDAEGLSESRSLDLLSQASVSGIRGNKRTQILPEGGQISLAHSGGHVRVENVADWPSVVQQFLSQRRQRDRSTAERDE
DNA damage-inducible transcript 3 protein, sequence (P35639 whole entry): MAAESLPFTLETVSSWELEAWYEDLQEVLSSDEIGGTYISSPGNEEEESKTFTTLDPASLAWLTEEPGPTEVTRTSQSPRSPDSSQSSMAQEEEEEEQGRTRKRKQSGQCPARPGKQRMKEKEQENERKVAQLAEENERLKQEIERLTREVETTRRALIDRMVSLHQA

As to `Sc1nnc(C2CCCCC2)n1/N=C/C=C/c1ccccc1`, the “Absolute IC50 (CHOP)” value in assay [1] stood at 10 µM. The IC50 was 13.7 µM (inactive) in assay [2] and > 69.5 µM (inactive) in assay [3].

Turning to `COCc1nnc(SCC(=O)NCc2ccccc2)n1-c1ccccc1`, the EC50 at Mucolipin-3 was > 29.9 µM (not active); at Ion channel NompC, > 29.9 µM (inactive).

Turning to `Cc1cc(OC(=O)c2ccco2)c2c(C)cc(=O)oc2c1`, the 50% inhibitory concentration (IC50) on Coagulation factor XII is > 50 µM (inconclusive).
